Measured values taken from patent US5559103A, “Bivalent sialyl X saccharides” (Cytel Corporation, priority 1994, dated 1996).
pIC50: −log10 of the molar value. Values joined by “and” are separate entries in the source; they are usually repeats but may differ in a detail not shown here. Equal entries are not always repeated.

How the values were obtained:
[1] = target: T1, recombinant soluble E-selectin (Homo sapiens, UniProt P16581); assay: Recombinant soluble E-selectin/HL-60 cell adhesion assay; type: cell-based; conditions: for Ratio (50 percent binding value for the standard Compound Z divided by the 50 percent binding value for the assayed sample) / IC50 value ratio of SLe^x to that of the compound: E-Selectin Cell Adhesion Assay, HL-60 cells; for Ratio (50 percent binding value for the standard Compound Z divided by the 50 percent binding value for the assayed sample): relative to Compound Z; for IC50 value ratio of SLe^x to that of the compound: relative to SLe^x (Table 1 value divided by 0.76); for inhibition of HL-60 cell adhesion to recombinant soluble E-selectin-coated plates, activity order: FIG. 1, range of inhibitor concentrations (mM)
T1 construct: The 3'-amplimer inserted the termination codon TGA after amino acid number 527 of the mature E-selectin; made in house
T1 sequence (P16581 22-548 limits assumed): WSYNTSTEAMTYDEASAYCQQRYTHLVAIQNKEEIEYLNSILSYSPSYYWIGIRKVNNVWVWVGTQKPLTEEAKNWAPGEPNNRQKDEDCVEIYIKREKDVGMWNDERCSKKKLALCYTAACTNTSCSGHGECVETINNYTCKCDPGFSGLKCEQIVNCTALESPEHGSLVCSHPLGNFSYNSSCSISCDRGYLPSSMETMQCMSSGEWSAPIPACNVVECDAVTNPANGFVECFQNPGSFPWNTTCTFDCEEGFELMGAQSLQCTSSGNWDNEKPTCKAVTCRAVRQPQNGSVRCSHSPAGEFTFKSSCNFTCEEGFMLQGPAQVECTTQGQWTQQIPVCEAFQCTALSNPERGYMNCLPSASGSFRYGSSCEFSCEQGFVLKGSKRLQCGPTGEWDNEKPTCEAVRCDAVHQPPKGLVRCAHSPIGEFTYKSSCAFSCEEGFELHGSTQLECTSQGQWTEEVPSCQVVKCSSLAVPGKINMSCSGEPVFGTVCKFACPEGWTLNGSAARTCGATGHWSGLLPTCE
Experimental: A modified recombinant soluble E-selectin/HL-60 cell adhesion assay was developed to provide a simple and highly reproducible method with which to compare the E-selectin blocking potential of a bivalent SLe^x saccharide compound. In this assay, recombinant soluble E-selectin (rELAM) is bound to the plastic surface of a 96 well ELISA plate. Dilutions of bivalent SLe^x saccharide compounds to be assayed are added to the wells followed by HL-60 cells which bear the ligand for E-selectin. The cells are allowed to adhere to the E-selectin coated assay plate and the nonadherent cells are removed by washing the plate with an automated plate washer. Bound cells are quantitated by measuring the cellular enzyme myeloperoxidase. The molar concentration of assayed bivalent SLe^x saccharide required to achieve 50 percent inhibition of control adhesion such as that inhibited by free SLe^x or an analog is used to compare the contemplated analogs for potency.
rELAM (recombinant modified ELAM-1) affinity purified, prepared as follows below. Each batch of rELAM was tested functionally to determine the appropriate concentration for use in the assay. A batch was titrated over a range of 1-5 μg/mL using inhibition by Compound Z (described hereinafter) as the standard. Small aliquots were then prepared, quick frozen in a dry-ice acetone bath and stored at -70° C. Each aliquot was opened only one time and then discarded or saved for use in other types of assays.
The soluble form of E-selectin (rELAM or sol-E-selectin) used here was engineered by deleting the transmembrane domain from the cDNA. This recombinant cDNA was cloned into a mammalian expression vector pCDNA1 [a derivative of pCDM8; Seed, Nature, 329:840 (1987)] that contains the chimeric cytomegalovirus/human immunodeficiency virus promoter. When introduced into the adenovirus-transformed human kidney cell line 293, expression of the CMV promoter is efficiently activated by the E1 gene products by a mechanism that has not been fully delineated. The pCDNA1-sol-E-selectin construction was introduced, via calcium phosphate-mediated gene transfer, into 293 cells and a stable cell line expressing high levels of sol-E-selectin was generated. The sol-E-selectinproduced by these cells was purified by immunoaffinity chromatograph on an anti-E-selectin monoclonal antibody Protein-A Sepharose column.
A 1.67 Kbp DNA fragment encoding a truncated structural gene for E-selectin was isolated by polymerase chain reaction (PCR) amplification of cDNA derived from messenger RNA that was isolated from IL-1-activated human endothelial cells. The 5'-amplimer inserted a unique ClaI restriction site 28 nucleotides upstream from the initiation codon of the E-selectin structural gene. The 3'-amplimer inserted the termination codon TGA after amino acid number 527 of the mature E-selectin, followed by a unique XhoI restriction site. The carboxy-terminus of sol-E-selectin is located at the carboxy terminus of the sixth consensus repeat element, thereby deleting the transmembrane domain. The 1.67 Kbp PCR fragment was codigested with ClaI and XhoI restriction endonucleases and sub-cloned into the ClaI and XhoI restriction sites of the cloning vector pBluescript II, providing vector pBS11-sol-E-selectin. Expressed soluble-E-selectin is 527 amino acid residues in length and contains 11 potential N-glycosylation sites.
1. Assays were carried out in 96-well Immunolan 2 plates (Dynatech Laboratories, Inc., Chantilly, Va. catalog #011-0103655). The rELAM (sol-E-selectin) was diluted to the appropriate concentration for the current batch. For these assays, rELAM was used at 2.5 or 3.0 μg/mL in DPBS; with well coating being carried out at room temperature. Using a multichannel pipette, 50μl per well were added to the following wells of one ELISA plate: E1-E6, F1-F6, and G1-G6. DPBS (50μl ) was added to wells H1, H2, and H3 for use as controls. This plate is referred to as the pretest plate. […]

[2] = system: P-selectin; conditions: monomeric; Nelson et al.; cited from earlier work
[3] = system: E-selectin; conditions: monomeric; Nelson et al.; cited from earlier work
[4] = system: lung injury in rats; conditions: Mulligan et al., cited from earlier work
[5] = infusion, cobra venom-infused rats

SMILES | Ratio (50 percent binding value for the standard Compound Z divided by the 50 percent binding value for the assayed sample) [1] | IC50 value ratio of SLe^x to that of the compound [1] | inhibition of HL-60 cell adhesion to recombinant soluble E-selectin-coated plates, activity order [1] | binding to P-selectin [2] | binding to E-selectin [3] | accumulation of neutrophils [4, 5] | lung injury [4, 5] | pIC50 ([4]; protection against lung injury in rats, read-out: in vivo IC50 value)
CCO[C@@H]1O[C@H](CO[C@@H]2O[C@H](CO)[C@@H](O[C@@H]3O[C@H](CO)[C@H](O)[C@H](O[C@]4(C(=O)O)C[C@H](O)[C@@H](NC(C)=O)[C@H]([C@H](O)[C@H](O)CO)O4)[C@H]3O)[C@H](O[C@@H]3O[C@@H](C)[C@@H](O)[C@@H](O)[C@@H]3O)[C@H]2NC(C)=O)[C@H](O)[C@H](O[C@@H]2O[C@H](CO)[C@@H](O[C@@H]3O[C@H](CO)[C@H](O)[C@H](O[C@]4(C(=O)O)C[C@H](O)[C@@H](NC(C)=O)[C@H]([C@H](O)[C@H](O)CO)O4)[C@H]3O)[C@H](O[C@@H]3O[C@@H](C)[C@@H](O)[C@@H](O)[C@@H]3O)[C@H]2NC(C)=O)[C@H]1O [Compound 1, Ethyl 3,6-bis-O-[(ammonium 5-acetamido-3,5-dideoxy-α-D-glycero-D-galacto-2-nonulo-pyranosylonate)-(2→3)-β-D-galactopyranosyl-(1→4)-(α-L-fucopyranosyl-(1→3))-2-acetamido-2-deoxy-β-D-glucopyranosyl]-β-D-galactopyranoside] | 3.8 and 2.67 | 3.5-5 | the most active | – | – | – | – | –
COC(=O)CCCCCO[C@@H]1O[C@H](CO[C@@H]2O[C@H](CO)[C@@H](O[C@@H]3O[C@H](CO)[C@H](O)[C@H](O[C@]4(C(=O)O)C[C@H](O)[C@@H](NC(C)=O)[C@H]([C@H](O)[C@H](O)CO)O4)[C@H]3O)[C@H](O[C@@H]3O[C@@H](C)[C@@H](O)[C@@H](O)[C@@H]3O)[C@H]2NC(C)=O)[C@H](O)[C@H](O)[C@H]1O[C@@H]1O[C@H](CO)[C@@H](O[C@@H]2O[C@H](CO)[C@H](O)[C@H](O[C@]3(C(=O)O)C[C@H](O)[C@@H](NC(C)=O)[C@H]([C@H](O)[C@H](O)CO)O3)[C@H]2O)[C@H](O[C@@H]2O[C@@H](C)[C@@H](O)[C@@H](O)[C@@H]2O)[C@H]1NC(C)=O [Compound 20, 5-Methoxycarbonylpentyl 2,6-bis-O-[(5-acetamido-3,5-dideoxy-α-D-glycero-D-galacto-2-nonulo-pyranosylonic acid)-yl-(2→3)-β-D-galactopyranosyl-(1→4)-(α-L-fucopyranosyl-(1→3))-2-acetamido-2-deoxy-β-D-glucopyranosyl]-β-D-galactopyranoside] | 2.67 | about 3.5 | – | – | – | – | – | –
COC(=O)CCCCCO[C@@H]1O[C@H](CO[C@@H]2O[C@H](CO)[C@@H](O[C@@H]3O[C@H](CO)[C@H](O)[C@H](O[C@]4(C(=O)O)C[C@H](O)[C@@H](NC(C)=O)[C@H]([C@H](O)[C@H](O)CO)O4)[C@H]3O)[C@H](O[C@@H]3O[C@@H](C)[C@@H](O)[C@@H](O)[C@@H]3O)[C@H]2NC(C)=O)[C@H](O[C@@H]2O[C@H](CO)[C@@H](O[C@@H]3O[C@H](CO)[C@H](O)[C@H](O[C@]4(C(=O)O)C[C@H](O)[C@@H](NC(C)=O)[C@H]([C@H](O)[C@H](O)CO)O4)[C@H]3O)[C@H](O[C@@H]3O[C@@H](C)[C@@H](O)[C@@H](O)[C@@H]3O)[C@H]2NC(C)=O)[C@H](O)[C@H]1O [Compound 21, 5-Methoxycarbonylpentyl 4,6-bis-O-[(5-acetamido-3,5-dideoxy-α-D-glycero-D-galacto-2-nonulo-pyranosylonic acid)-yl-(2→3)-β-D-galactopyranosyl-(1→4)-(α-L-fucopyranosyl-(1→3))-2-acetamido-2-deoxy-β-D-glucopyranosyl]-β-D-galactopyranoside] | 1.67 | – | more active than Compound 20 | – | – | – | – | –
CC(=O)N[C@H]1[C@H]([C@H](O)[C@H](O)CO)O[C@@](O[C@H]2[C@@H](O)[C@@H](CO)O[C@@H](O[C@H]3[C@H](O[C@@H]4O[C@@H](C)[C@@H](O)[C@@H](O)[C@@H]4O)[C@@H](NC(C)=O)C(O)O[C@@H]3CO)[C@@H]2O)(C(=O)O)C[C@@H]1O (stereo partly shown) [SLe^x, NeuAcα2→3βGalβ1→4(Fucα1→3)GlcNAc] | 0.76 | – | – | binds weakly | binds weakly | reduced accumulation of neutrophils | reduced lung injury | ~6.00
